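1) Cells in 96-well plates. 2) Compound, 48 h, 5 concentrations. 3) Linear interpolation between surrounding doses. 4) Unreached endpoint = highest concentration. TGI is the concentration that stops growth completely.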
Columns and labels:
Assay in all cases: NCI anticancer screen, dose series, 48 h
HCT-15 colon = tested on: HCT-15 colon
UACC-62 melanoma = tested on: UACC-62 melanoma
ACHN renal = tested on: ACHN renal
MOLT-4 leukemia = tested on: MOLT-4 leukemia
BT-549 breast = tested on: BT-549 breast
SR leukemia = tested on: SR leukemia
SF-539 CNS = tested on: SF-539 CNS
MALME-3M melanoma = tested on: MALME-3M melanoma
HL-60(TB) leukemia = tested on: HL-60(TB) leukemia
NCI-H460 lung = tested on: NCI-H460 lung
RPMI-8226 leukemia = tested on: RPMI-8226 leukemia

COc1ccc(C2CCc3nc4nc(N)nc(N)c4cc3C2)cc1 (stereo not given)
TGI (HCT-15 colon): > 100 µM
TGI (UACC-62 melanoma): > 100 µM
TGI (ACHN renal): 22 µM
TGI (MOLT-4 leukemia): 65.3 µM
TGI (BT-549 breast): 70.6 µM
TGI (SR leukemia): 67.3 µM
TGI (SF-539 CNS): 30.9 µM
TGI (MALME-3M melanoma): > 100 µM
TGI (HL-60(TB) leukemia): > 100 µM
TGI (NCI-H460 lung): > 100 µM
TGI (RPMI-8226 leukemia): > 100 µM

CCCS(=O)(=O)O
TGI (HCT-15 colon): > 100 µM
TGI (UACC-62 melanoma): > 100 µM
TGI (ACHN renal): > 100 µM
TGI (MOLT-4 leukemia): > 100 µM
TGI (BT-549 breast): > 100 µM
TGI (SR leukemia): > 100 µM
TGI (SF-539 CNS): > 100 µM
TGI (MALME-3M melanoma): > 100 µM
TGI (HL-60(TB) leukemia): > 100 µM
TGI (NCI-H460 lung): > 100 µM
TGI (RPMI-8226 leukemia): > 100 µM

NC(=O)c1cnc2sc3ccccc3n2c1=O
TGI (HCT-15 colon): > 100 µM
TGI (UACC-62 melanoma): > 100 µM
TGI (ACHN renal): > 100 µM
TGI (MOLT-4 leukemia): > 100 µM
TGI (BT-549 breast): > 100 µM
TGI (SR leukemia): > 100 µM
TGI (SF-539 CNS): > 100 µM
TGI (MALME-3M melanoma): > 100 µM
TGI (HL-60(TB) leukemia): > 100 µM
TGI (NCI-H460 lung): > 100 µM
TGI (RPMI-8226 leukemia): > 100 µM

CN(c1c(Cl)cccc1Cl)S(=O)(=O)c1ccccc1[N+](=O)[O-]
TGI (HCT-15 colon): > 100 µM
TGI (UACC-62 melanoma): > 100 µM
TGI (ACHN renal): > 100 µM
TGI (MOLT-4 leukemia): > 100 µM
TGI (BT-549 breast): > 100 µM
TGI (SR leukemia): > 100 µM
TGI (SF-539 CNS): > 100 µM
TGI (MALME-3M melanoma): > 100 µM
TGI (NCI-H460 lung): > 100 µM
TGI (RPMI-8226 leukemia): > 100 µM

CN1CCc2c(sc3nc(Nc4ccccc4)n(N)c(=O)c23)C1
TGI (HCT-15 colon): > 100 µM
TGI (UACC-62 melanoma): > 100 µM
TGI (ACHN renal): > 100 µM
TGI (MOLT-4 leukemia): > 100 µM
TGI (BT-549 breast): > 100 µM
TGI (SF-539 CNS): > 100 µM
TGI (HL-60(TB) leukemia): > 100 µM
TGI (NCI-H460 lung): > 100 µM
TGI (RPMI-8226 leukemia): > 100 µM

O=C(N/N=C(/COc1cccc(Cl)c1)N=Cc1ccncc1)c1ccncc1
TGI (HCT-15 colon): > 100 µM
TGI (UACC-62 melanoma): > 100 µM
TGI (ACHN renal): > 100 µM
TGI (MOLT-4 leukemia): > 100 µM
TGI (BT-549 breast): > 100 µM
TGI (SF-539 CNS): > 100 µM
TGI (MALME-3M melanoma): > 100 µM
TGI (HL-60(TB) leukemia): > 100 µM
TGI (NCI-H460 lung): > 100 µM
TGI (RPMI-8226 leukemia): > 100 µM

C1CNCCN2CCCNCCN(C1)CC2
TGI (HCT-15 colon): > 100 µM
TGI (UACC-62 melanoma): > 100 µM
TGI (ACHN renal): > 100 µM
TGI (MOLT-4 leukemia): > 100 µM
TGI (BT-549 breast): > 100 µM
TGI (SR leukemia): > 100 µM
TGI (SF-539 CNS): > 100 µM
TGI (MALME-3M melanoma): > 100 µM
TGI (NCI-H460 lung): > 100 µM
TGI (RPMI-8226 leukemia): > 100 µM

COc1ccc(-c2cc(-c3ccccc3)n(C3OC(COC(C)=O)C(OC(C)=O)C(OC(C)=O)C3OC(C)=O)c(=S)c2C#N)cc1 (stereo not given)
TGI (HCT-15 colon): > 100 µM
TGI (UACC-62 melanoma): 16.4 µM
TGI (ACHN renal): 29.7 µM
TGI (MOLT-4 leukemia): > 100 µM
TGI (BT-549 breast): 34.9 µM
TGI (SR leukemia): 37.5 µM
TGI (SF-539 CNS): 14.4 µM
TGI (MALME-3M melanoma): 23.2 µM
TGI (HL-60(TB) leukemia): 13.4 µM
TGI (NCI-H460 lung): 22.2 µM
TGI (RPMI-8226 leukemia): 16.7 µM

O=[N+]([O-])c1cc2n[nH]nc2c2nonc12
TGI (HCT-15 colon): > 100 µM
TGI (ACHN renal): 67.6 µM
TGI (MOLT-4 leukemia): 95.6 µM
TGI (BT-549 breast): 24.1 µM
TGI (SR leukemia): > 100 µM
TGI (SF-539 CNS): 56 µM
TGI (MALME-3M melanoma): > 100 µM
TGI (HL-60(TB) leukemia): 61.3 µM
TGI (NCI-H460 lung): > 100 µM
TGI (RPMI-8226 leukemia): > 100 µM

O=C(ON=c1c2ccccc2ccc2ccccc12)c1cc([N+](=O)[O-])cc([N+](=O)[O-])c1
TGI (HCT-15 colon): > 100 µM
TGI (UACC-62 melanoma): > 100 µM
TGI (ACHN renal): > 100 µM
TGI (MOLT-4 leukemia): > 100 µM
TGI (BT-549 breast): > 100 µM
TGI (SR leukemia): > 100 µM
TGI (SF-539 CNS): > 100 µM
TGI (MALME-3M melanoma): 77.4 µM
TGI (HL-60(TB) leukemia): > 100 µM
TGI (NCI-H460 lung): > 100 µM
TGI (RPMI-8226 leukemia): > 100 µM

C=C1C(=O)OC2/C=C(\C)CC/C=C(/C)CC(OC(=O)/C(=C/CO)CO)C12 (stereo not given)
TGI (HCT-15 colon): 37.7 µM
TGI (UACC-62 melanoma): 33.1 µM
TGI (ACHN renal): 33.5 µM
TGI (MOLT-4 leukemia): > 100 µM
TGI (BT-549 breast): 30.9 µM
TGI (SR leukemia): > 100 µM
TGI (SF-539 CNS): 66.3 µM
TGI (MALME-3M melanoma): 42.2 µM
TGI (HL-60(TB) leukemia): 20.7 µM
TGI (NCI-H460 lung): > 100 µM
TGI (RPMI-8226 leukemia): 72.7 µM

COc1cc2c(cc1C)NC(=O)/C2=C/c1c(Cl)[nH]c2cc(C)c(OC)cc12
TGI (HCT-15 colon): 17.5 µM
TGI (UACC-62 melanoma): 19.5 µM
TGI (ACHN renal): 18.4 µM
TGI (MOLT-4 leukemia): 17.8 µM
TGI (BT-549 breast): 9.92 µM
TGI (SR leukemia): 12 µM
TGI (SF-539 CNS): 1.33 µM
TGI (MALME-3M melanoma): 25.4 µM
TGI (HL-60(TB) leukemia): 3.39 µM
TGI (NCI-H460 lung): 5.71 µM
TGI (RPMI-8226 leukemia): > 48.9 µM

O=C1CCc2c3c(c4c([nH]c5ccccc54)c2CC1)C(=O)NC3=O
TGI (HCT-15 colon): > 100 µM
TGI (UACC-62 melanoma): 42.8 µM
TGI (ACHN renal): 24.7 µM
TGI (MOLT-4 leukemia): 4.05 µM
TGI (BT-549 breast): 28.2 µM
TGI (SF-539 CNS): > 100 µM
TGI (MALME-3M melanoma): 12.6 µM
TGI (HL-60(TB) leukemia): 17.2 µM
TGI (NCI-H460 lung): 44.9 µM
TGI (RPMI-8226 leukemia): 64.1 µM

CCN(CC)CCn1ncc2ccc3c(c(=O)c4cccnc4n3CCN(CC)CC)c21
TGI (HCT-15 colon): 6 µM
TGI (UACC-62 melanoma): 5.15 µM
TGI (ACHN renal): > 10 µM
TGI (MOLT-4 leukemia): 1.43 µM
TGI (BT-549 breast): 5.11 µM
TGI (SR leukemia): 1.3 µM
TGI (SF-539 CNS): 1.95 µM
TGI (MALME-3M melanoma): 3.32 µM
TGI (HL-60(TB) leukemia): 2.83 µM
TGI (NCI-H460 lung): 2.45 µM
TGI (RPMI-8226 leukemia): 4.21 µM

O=c1oc2ncccc2n1Cc1ccc([N+](=O)[O-])cc1
TGI (HCT-15 colon): > 100 µM
TGI (UACC-62 melanoma): > 100 µM
TGI (ACHN renal): > 100 µM
TGI (MOLT-4 leukemia): > 100 µM
TGI (BT-549 breast): > 100 µM
TGI (SR leukemia): > 100 µM
TGI (SF-539 CNS): > 100 µM
TGI (MALME-3M melanoma): > 100 µM
TGI (HL-60(TB) leukemia): > 100 µM
TGI (NCI-H460 lung): > 100 µM
TGI (RPMI-8226 leukemia): > 100 µM

Cc1nn2c(N)cc(=O)nc2nc1/C=C/c1ccc(N(C)C)cc1
TGI (HCT-15 colon): > 27.9 µM
TGI (UACC-62 melanoma): > 100 µM
TGI (ACHN renal): > 100 µM
TGI (MOLT-4 leukemia): > 100 µM
TGI (BT-549 breast): > 100 µM
TGI (SR leukemia): > 100 µM
TGI (MALME-3M melanoma): 49.8 µM
TGI (HL-60(TB) leukemia): 0.0117 µM
TGI (NCI-H460 lung): > 100 µM
TGI (RPMI-8226 leukemia): > 100 µM

CCOC(=O)c1ccc(N=C2SC(=S)N(c3ccc(F)cc3)C2=Nc2ccc(C(=O)OCC)cc2)cc1
TGI (HCT-15 colon): 21.4 µM
TGI (UACC-62 melanoma): 21.5 µM
TGI (ACHN renal): 29.4 µM
TGI (MOLT-4 leukemia): 35.1 µM
TGI (BT-549 breast): 40.6 µM
TGI (SR leukemia): 29.3 µM
TGI (SF-539 CNS): 42.7 µM
TGI (MALME-3M melanoma): 36.6 µM
TGI (HL-60(TB) leukemia): 22.3 µM
TGI (NCI-H460 lung): > 100 µM
TGI (RPMI-8226 leukemia): 51.3 µM

NC(CCCCCP(=O)(O)O)C(=O)O (stereo not given)
TGI (HCT-15 colon): > 100 µM
TGI (UACC-62 melanoma): > 100 µM
TGI (ACHN renal): > 100 µM
TGI (MOLT-4 leukemia): > 100 µM
TGI (BT-549 breast): > 100 µM
TGI (SR leukemia): > 100 µM
TGI (SF-539 CNS): > 100 µM
TGI (HL-60(TB) leukemia): > 100 µM
TGI (NCI-H460 lung): > 100 µM
TGI (RPMI-8226 leukemia): > 100 µM

C=CCCCCOC1C=CC(OC(C)=O)C(COC(C)=O)O1 (stereo not given)
TGI (HCT-15 colon): > 100 µM
TGI (UACC-62 melanoma): > 100 µM
TGI (ACHN renal): > 100 µM
TGI (MOLT-4 leukemia): > 100 µM
TGI (BT-549 breast): > 100 µM
TGI (SF-539 CNS): > 100 µM
TGI (MALME-3M melanoma): > 100 µM
TGI (HL-60(TB) leukemia): > 100 µM
TGI (NCI-H460 lung): > 100 µM
TGI (RPMI-8226 leukemia): > 100 µM

CCN(CC)CCN1c2ccccc2Sc2ccc3ccccc3c21
TGI (HCT-15 colon): 22.1 µM
TGI (UACC-62 melanoma): 22 µM
TGI (ACHN renal): 29.2 µM
TGI (MOLT-4 leukemia): 7.66 µM
TGI (BT-549 breast): 29.9 µM
TGI (SR leukemia): 20.9 µM
TGI (SF-539 CNS): 29.7 µM
TGI (MALME-3M melanoma): 32.5 µM
TGI (HL-60(TB) leukemia): 15.1 µM
TGI (NCI-H460 lung): 6.42 µM
TGI (RPMI-8226 leukemia): 10.7 µM
